Laboratory results published in US8906826B2, “Herbicidal compositions comprising 4-amino-3-chloro-5-fluoro-6-(4-chloro-2-fluoro-3-methoxyphenyl) pyridine-2-carboxylic acid or a derivative thereof and imidazolinones” (Dow AgroSciences, LLC, priority 2012, dated 2014).
Several values for one entry are separate records, joined by “and”; a condition that tells them apart may be missing. Equal values may be shown once.

Assays:
CYPIR = experiment: Postemergence foliar-applied, direct seeded rice weeds (Example I); type: in vivo, Cyperus iria L.
Excerpt: (§1) Seeds or nutlets of the desired test plant species were planted in a soil matrix prepared by mixing a loam or sandy loam soil (e.g., 28.6 percent silt, 18.8 percent clay, and 52.6 percent sand, with a pH of about 5.8 and an organic matter content of about 1.8 percent) and calcareous grit in an 80 to 20 ratio. The soil matrix was contained in plastic pots with a volume of 1 quart and a surface area of 83.6 cm^2. When required to ensure good germination and healthy plants, a fungicide treatment and/or other chemical or physical treatment was applied. The plants were grown for 8-22 days in a greenhouse with an approximate 14 h photoperiod which was maintained at about 29° C. during the day and 26° C. during the night. Nutrients (Peters Excel® 15-5-15 5-Ca 2-Mg and iron chelate) were applied in the irrigation solution as needed and water was added on a regular basis. Supplemental lighting was provided with overhead metal halide 1000-Watt lamps as necessary. The plants were employed for testing when they reached the first through fourth true leaf stage.
(§2) Treatments consisted of the acid or esters of 4-amino-3-chloro-5-fluoro-6-(4-chloro-2-fluoro-3-methoxy-phenyl)pyridine-2-carboxylic acid (Compound A), each formulated as an SC (suspension concentrate), and various herbicidal components alone and in combination. Forms of compound A were applied on an acid equivalent basis.
(§3) Other herbicidal components were applied on an acid equivalent basis and include acetolactate synthase (ALS)-inhibiting herbicides (imidazolinone chemical class) imazethapyr ammonium salt formulated as Newpath®, imazamox ammonium salt formulated as Beyond®, imazapic ammonium salt formulated as Plateau®, imazapyr isopropylamine salt formulated as Arsenal®, imazamethabenz-methyl (technical material) and imazaquin isopropylamine salt formulated as Scepter®/Imagine®.
(§4) Treatment requirements were calculated based upon the rates being tested, the concentration of active ingredient or acid equivalent in the formulation, and a 12 mL application volume at a rate of 187 L/ha.
(§5) For treatments comprised of formulated compounds, measured amounts of compounds were placed individually in 25 mL glass vials and diluted in a volume of 1.25% (v/v) Agri-Dex® crop oil concentrated to obtain 12× stock solutions. […] Application solutions were prepared by adding an appropriate amount of each stock solution (e.g., 1 mL) and diluted to the appropriate final concentrations with the addition of 10 mL of an aqueous mixture of 1.25% (v/v) crop oil concentrate so that the final spray solutions contained 1.25+/−0.05% (v/v) crop oil concentrate.
(§6) For treatments comprised of technical compounds, weighed amounts can be placed individually in 25 mL glass vials and dissolved in a volume of 97:3 v/v acetone/DMSO to obtain 12× stock solutions. […] Application solutions can be prepared by adding an appropriate amount of each stock solution (e.g., 1 mL) and diluted to the appropriate final concentrations with the addition of 10 mL of an aqueous mixture of 1.5% (v/v) crop oil concentrate so that the final spray solutions contain 1.25% (v/v) crop oil concentrate. When technical materials are used, the concentrated stock solutions can be added to the spray solutions so that the final acetone and DMSO concentrations of the application solutions are 16.2% and 0.5%, respectively.
(§7) For treatments comprised of formulated and technical compounds, weighed amounts of the technical materials were placed individually in 25 mL glass vials and dissolved in a volume of 97:3 v/v acetone/DMSO to obtain 12× stock solutions, and measured amounts of the formulated compounds were placed individually in 25 mL glass vials and diluted in a volume of 1.5% (v/v) crop oil concentrate or water to obtain 12× stock solutions. […]

DIGSA = experiment: as above; type: in vivo, Digitaria sanguinalis (L.) Scop.
Excerpt: as §1, §2, §3, §4
For treatments comprised of formulated compounds, measured amounts of compounds were placed individually in 25 mL glass vials and diluted in a volume of 1.25% (v/v) Agri-Dex® crop oil concentrated to obtain 12× stock solutions. […]
as §7

CYPES = experiment: as above; type: in vivo, Cyperus esculentus L.
Excerpt: as §1, §2, §3, §4, §5, §6, §7

ECHCG = experiment: as above; type: in vivo, Echinochloa crusgalli (L.) Beauv.
Excerpt: as §1, §2, §3, §4, §5, §6, §7

CENMA = experiment: Postemergence herbicidal activity in forage crops (Example IV); type: in vivo, Centaurea biebersteinii DC.; conditions: after approximately 21 days
Procedure: Seeds or root cuttings of the desired test plant species were planted in Sun Gro MetroMix® 306 planting mixture, which typically has a pH of about 6.0 to about 6.8 and an organic matter content of about 30 percent, in plastic pots with a surface area of 126.6 square centimeters (cm^2). When required to ensure good germination and healthy plants, a fungicide treatment and/or other chemical or physical treatment was applied. The plants were grown for 14-60 days in a greenhouse with an approximate 14 hour photoperiod which was maintained at about 28° C. during the day and about 24° C. during the night. Nutrients and water were added on a regular basis and supplemental lighting was provided with overhead metal halide 1000-Watt lamps as necessary. The plants were employed for testing when they reached the BBCH13 to BBCH23 leaf stage.
Treatments consisted of the benzyl ester of 4-amino-3-chloro-5-fluoro-6-(4-chloro-2-fluoro-3-methoxy-phenyl)pyridine-2-carboxylic acid (Compound A), formulated as a SC (suspension concentrate), and a second herbicide alone and in combination.
A measured aliquot of Compound A was placed in a 25 milliliter (mL) glass vial and diluted in a volume of 1.25% (v/v) Agri-Dex® crop oil concentrate to obtain stock solutions. Compound requirements are based upon a 12 mL application volume at a rate of 187 liters per hectare (L/ha). Spray solutions of the second cereal herbicide and experimental compound mixtures were prepared by adding the stock solutions to the appropriate amount of dilution solution to form 12 mL spray solution with active ingredients in two- and three-way combinations. Formulated compounds were applied to the plant material with an overhead Mandel track sprayer equipped with an 8002E nozzle calibrated to deliver 187 L/ha over an application area of 0.503 square meters (m^2) at a spray height of 18 inches (46 cm) above average plant canopy. Control plants were sprayed in the same manner with the solvent blank.
The treated plants and control plants were placed in a greenhouse as described above and watered by sub-irrigation to prevent wash-off of the test compounds. After approximately 21 days, the condition of the test plants, as compared with that of the control plants, was determined visually and scored on a scale of 0 to 100 percent where 0 corresponds to no injury and 100 corresponds to complete kill.
Colby's equation was used to determine the herbicidal effects expected from the mixtures (Colby, S. R. 1967. Calculation of the synergistic and antagonistic response of herbicide combinations. Weeds 15:20-22.).
The following equation was used to calculate the expected activity of mixtures containing two active ingredients, A and B: Expected=A+B−(A×B/100)

[1] = Compound A Benzyl Ester 8.75 gae/ha
[2] = Compound A Benzyl Ester 17.5 gae/ha

With `COCc1cnc(C2=NC(C)(C(C)C)C(=O)N2)c(C(=O)O)c1.N` (racemic) [Imazamox ammonium, ammonium (±)-2-[4,5-dihydro-4-methyl-4-(1-methylethyl)-5-oxo-1H-imidazol-2-yl]-5-(methoxymethyl)-3-pyridinecarboxylate] the “Visual Weed Control (%) - 25 DAA CYPIR Obs” value (CYPIR; Imazamox ammonium 11.2 gae/ha) was 20%, the “Visual Weed Control (%) - 25 DAA CYPIR Obs” value (CYPIR; Imazamox ammonium 22.4 gae/ha) was 70% and the “Visual Weed Control (%) - 20 DAA DIGSA Obs” value (DIGSA; Imazamox ammonium 44.8 gae/ha) was 60%. For the same compound, the “Visual Weed Control (%) - 25 DAA CYPES Obs” value (CYPES; Imazamox ammonium 5.6 gae/ha) was 0%, the “Visual Weed Control (%) - 25 DAA CYPES Obs” value (CYPES; Imazamox ammonium 11.2 gae/ha) was 0% and the “Visual Weed Control (%) - 25 DAA CYPES Obs” value (CYPES; Imazamox ammonium 22.4 gae/ha) was 20%. For the same compound, the “Visual Weed Control (%) - 25 DAA ECHCG Obs” value (ECHCG; Imazamox ammonium 5.6 gae/ha) was 15%, the “Visual Weed Control (%) - 25 DAA ECHCG Obs” value (ECHCG; Imazamox ammonium 11.2 gae/ha) was 20% and the “Visual Weed Control (%) - 25 DAA ECHCG Obs” value (ECHCG; Imazamox ammonium 22.4 gae/ha) was 60%.

`Cc1cnc(C2=NC(C)(C(C)C)C(=O)N2)c(C(=O)O)c1.N` (racemic) [Imazapic ammonium, ammonium (±)-2-[4,5-dihydro-4-methyl-4-(1-methylethyl)-5-oxo-1H-imidazol-2-yl]-5-methyl-3-pyridinecarboxylic acid] was tested, and the “Visual Weed Control (%) - 22 DAA CYPIR Obs” value (CYPIR; Imazapic ammonium 7 gae/ha) was 20%, the “CENMA Obs” value (CENMA; Imazapic ammonium 8.75 gae/ha) was 0% and the “CENMA Obs” value (CENMA; Imazapic ammonium 17.5 gae/ha) was 0%. For the same compound, the “Visual Weed Control (%) - 25 DAA ECHCG Obs” value (ECHCG; Imazapic ammonium 4.38 gae/ha) was 20% and the “Visual Weed Control (%) - 25 DAA ECHCG Obs” value (ECHCG; Imazapic ammonium 8.75 gae/ha) was 40%.

`CCc1cnc(C2=NC(C)(C(C)C)C(=O)N2)c(C(=O)O)c1.N` (racemic) [Imazethapyr ammonium, ammonium (±)-2-[4,5-dihydro-4-methyl-4-(1-methylethyl)-5-oxo-1H-imidazol-2-yl]-5-ethyl-3-pyridinecarboxylate] was tested, and the “Visual Weed Control (%) - 20 DAA DIGSA Obs” value (DIGSA; Imazethapyr ammonium 70 gae/ha) was 80% and the “Visual Weed Control (%) - 25 DAA CYPES Obs” value (CYPES; Imazethapyr ammonium 8.75 gae/ha) was 0%.

`COc1c(Cl)ccc(-c2nc(C(=O)O)c(Cl)c(N)c2F)c1F` [Compound A Acid, 4-amino-3-chloro-6-(4-chloro-2-fluoro-3-methoxyphenyl)-5-fluoropyridine-2-carboxylic acid] was tested, and the “Visual Weed Control (%) - 20 DAA DIGSA Obs” value (DIGSA; Compound A Acid 19.3 gae/ha) was 13%, the “Visual Weed Control (%) - 25 DAA CYPES Obs” value (CYPES; Compound A Acid 4.38 gae/ha) was 50% and the “Visual Weed Control (%) - 25 DAA ECHCG Obs” value (ECHCG; Compound A Acid 4.38 gae/ha) was 20%. For the same compound, the “Visual Weed Control (%) - 25 DAA ECHCG Obs” value (ECHCG; Compound A Acid 8.75 gae/ha) was 50%.

For `COc1c(Cl)ccc(-c2nc(C(=O)OCc3ccccc3)c(Cl)c(N)c2F)c1F` [Compound A Benzyl Ester, benzyl ester of 4-amino-3-chloro-5-fluoro-6-(4-chloro-2-fluoro-3-methoxy-phenyl)pyridine-2-carboxylic acid], the “Visual Weed Control (%) - 22 DAA CYPIR Obs” value (CYPIR; Compound A Benzyl Ester 8 gae/ha) was 20% and 30%, the “Visual Weed Control (%) - 25 DAA CYPIR Obs” value (CYPIR; [1]) was 75% and the “Visual Weed Control (%) - 22 DAA CYPIR Obs” value (CYPIR; Compound A Benzyl Ester 16 gae/ha) was 85%. For the same compound, the “CENMA Obs” value (CENMA; Compound A Benzyl Ester 4.4 gae/ha) was 70%, the “CENMA Obs” value (CENMA; Compound A Benzyl Ester 8.8 gae/ha) was 85% and the “CENMA Obs” value (CENMA; [2]) was 95%. For the same compound, the “Visual Weed Control (%) - 25 DAA CYPES Obs” value (CYPES; Compound A Benzyl Ester 4.38 gae/ha) was 70%, the “Visual Weed Control (%) - 25 DAA CYPES Obs” value (CYPES; [1]) was 90% and the “Visual Weed Control (%) - 25 DAA CYPES Obs” value (CYPES; [2]) was 85%.
